{"source": "patent US20210317092A1", "about": "(BAYER PHARMA AKTIENGESELLSCHAFT, priority 2016, published 2021)", "test_system": "IL-1B and des-Arg9-bradykinin (DABK) induced paw oedema", "assay": "Rat paw oedema in vivo model", "conditions": "p.o., p < 0.05 versus vehicle (6.45 ± 1.14)", "description": "Rat Paw Oedema In Vivo Model\nMale Sprague Dawley rats, approximately 250 g body weight, were used. The compound examples were administered orally in the vehicle as described in “Rat CFA in vivo model”, supra. Rats were treated orally (p.o.) with a solution of 5 mL/kg bodyweight of the vehicle only or 5 mL/kg bodyweight of a solution containing the vehicle plus the compound in a dose as indicated in Table 4. Rats received an intraplantar injection of IL-1B (5 μg in 20 μL) and des-Arg9-bradykinin (DABK; 10 μg in 20 μL) at 20 and 40 minutes after compound treatment, respectively. Paw oedema was measured by water displacement using a plethysmometer (Ugo Basile, Gemonio, Italy). Paw oedema measurement was performed before compound administration (baseline) and subsequently at 20, 40 and 60 minutes after DABK injection. Paw oedema was calculated by subtracting the baseline value to post-DABK treatment values for each individual and at each time point. Data were analysed by calculating the area under the paw oedema time curve for each individual (0-60 minutes post-DABK). The effect of the compound example, relative to that of the vehicle, was analysed by performing a one-way ANOVA followed by a Dunnett's post-hoc test. […] The mean and standard deviation were calculated for each treatment group for graphical representations."}
{"smiles": "CCOc1ccc(-c2ccc(NC(=O)C3(c4cccc(Cl)c4)CC3)cc2-c2nnn[nH]2)cn1", "note": "[Example 253, 1-(3-Chlorophenyl)-N-[4-(6-ethoxypyridin-3-yl)-3-(1H-tetrazol-5-yl)phenyl]cyclopropanecarboxamide]", "values": [{"measurement": "AUC of Paw Oedema (AUC 0-1 hour post DABK)", "setting": "10 mg/kg", "value": "3.24 ± 2.73 (*)"}, {"measurement": "AUC of Paw Oedema (AUC 0-1 hour post DABK)", "setting": "30 mg/kg", "value": "3.67 ± 2.35 (*)"}]}
